Results taken from US12319701B2, “Antagonists of the muscarinic acetylcholine receptor M4” (priority 2019, dated 2025).

Key:
[1] = tested on: catalepsy induced by the DA receptor antagonist haloperidol; test: Reversal of haloperidol-induced catalepsy by scopolamine in mice; assay type: in vivo
Excerpt: Furthermore, haloperidol-induced catalepsy, a model of parkinsonian motor disability, is reduced in M4 knockout mice as compared to wild-type controls. […] The reversal by scopolamine was uncommonly robust and more pronounced than we observe with agents targeting a number of other targets being evaluated for potential antiparkinsonian effects, including metabotropic glutamate (mGlu) receptors mGlu4 or mGlu5, A2A adenosine receptors, and NMDA receptors. […] Taken together with the extensive studies of M4 modulation of basal ganglia and motor function, these studies provide compelling evidence that M4 is the dominant mAChR subtype involved in the antiparkinsonian effects of non-selective mAChR antagonists and provide support for discovery and development of selective M4 antagonists for treatment of neurodegenerative disease such as PD, dystonia, tardive dyskinesia and other movement disorders.

Human M4 = biological target: T1, Human M4 (Homo sapiens, UniProt P08173); test: mAChR M4 cell-based functional assay (calcium flux, Fluo-4, M4/Gqi5/CHO-K1 cells); conditions: for remaining activity at 30 µM: CHO-K1, read-out: Human M4 Emin (%), % ACh maximum at 30 μM
T1 construct: expressed in transfected cells; host or cells: CHO-K1 (ATCC), stably co-expressing chimeric G protein Gqi5
T1 sequence (P08173 1-479): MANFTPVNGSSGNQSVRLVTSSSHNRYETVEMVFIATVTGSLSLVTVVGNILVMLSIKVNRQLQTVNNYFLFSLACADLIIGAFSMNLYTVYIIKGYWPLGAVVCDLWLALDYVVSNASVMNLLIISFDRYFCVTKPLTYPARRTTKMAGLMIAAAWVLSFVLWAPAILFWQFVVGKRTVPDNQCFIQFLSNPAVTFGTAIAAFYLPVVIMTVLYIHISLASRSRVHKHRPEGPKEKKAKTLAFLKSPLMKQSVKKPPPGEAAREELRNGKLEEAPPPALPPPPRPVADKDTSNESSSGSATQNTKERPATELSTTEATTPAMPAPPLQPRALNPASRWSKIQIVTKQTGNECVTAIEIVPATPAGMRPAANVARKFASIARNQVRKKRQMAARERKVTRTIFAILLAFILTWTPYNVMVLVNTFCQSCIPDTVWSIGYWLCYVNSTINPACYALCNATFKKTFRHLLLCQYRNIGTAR
Experimental: Human or rat M4 cDNA, along with the chimeric G protein Gqi5, were transfected into Chinese hamster ovary (CHO-K1) cells purchased from the American Type Culture Collection using Lipofectamine2000. M4/Gqi5/CHO cells were grown in Ham's F-12 medium containing 10% heat-inactivated fetal bovine serum (FBS), 20 mM HEPES, 500 μg/mL 418 sulfate, and 200 μg/mL Hygromycin B.
For high throughput measurement of agonist-evoked increases in intracellular calcium, CHO-K1 cells stably expressing muscarinic receptors were plated in growth medium lacking 418 and hygromycin at 15,000 cells/20 μL/well in Greiner 384-well black-walled, tissue culture (TC)-treated, clear-bottom plates (VWR). Cells were incubated overnight at 37° C. and 5% CO2. The next day, cells were washed using an ELX 405 (BioTek) with assay buffer; the final volume was then aspirated to 20 μL. Next, 20 μL of a 2.3 μM stock of Fluo-4/acetoxymethyl ester (Invitrogen, Carlsbad, CA), prepared as a 2.3 mM stock in DMSO and mixed in a 1:1 ratio with 10% (w/v) Pluronic F-127 and diluted in assay buffer, was added to the wells and the cell plates were incubated for 50 min at 37° C. and 5% CO2. Dye was removed by washing with the ELX 405 and the final volume was aspirated to 20 μL. Compound master plates were formatted in a 10 point concentration-response curve (CRC) format (1:3 dilutions) in 100% DMSO with a starting concentration of 10 or 1 mM using a BRAVO liquid handler (Agilent). Test compound CRCs were then transferred to daughter plates (240 nL) using the Echo acoustic plate reformatter (Labcyte, Sunnyvale, CA) and then diluted into assay buffer (40 μL) to a 2× stock using a Thermo Fisher Combi (Thermo Fisher Scientific, Waltham, MA).
Calcium flux was measured using the Functional Drug Screening System (FDSS) 6000 or 7000 (Hamamatsu Corporation, Tokyo, Japan) as an increase in the fluorescent static ratio. Compounds were applied to cells (20 μL, 2×) using the automated system of the FDSS at 2 seconds into the protocol and the data were collected at 1 Hz. At 143 s, 10 μL of an EC20 concentration of the muscarinic receptor agonist acetylcholine was added (5×), followed by the addition of 12 μL of an EC80 concentration of acetylcholine at the 268 s time point (5×). Agonist activity was analyzed as a concentration-dependent increase in calcium mobilization upon compound addition. Positive allosteric modulator activity was analyzed as a concentration-dependent increase in the EC20 acetylcholine response. Antagonist activity was analyzed as a concentration-dependent decrease in the ECK) acetylcholine response; for the purposes of the tables herein, an IC50 (inhibitory concentration 50) was calculated as a concentration-dependent decrease of the response elicited by an ECK) concentration of acetylcholine. Concentration-response curves were generated using a four-parameter logistical equation in XLFit curve fitting software (IDBS, Bridgewater, NJ) for Excel (Microsoft, Redmond, WA) or Prism (GraphPad Software, Inc., San Diego, CA) or the Dotmatics software platform (Dotmatics, Bishop's Stortford, UK).
Compounds were synthesized as described above. Activity (IC50 and Emin) was determined in the mAChR M4 cell-based functional assay as described above and the data are shown in Table 2.

Row | SMILES | Reduction of haloperidol-induced catalepsy ([1]; M4 KO mice) | Reversal of haloperidol-induced catalepsy ([1]; WT mice) | IC50 (Human M4) | remaining activity at 30 µM (Human M4)
1 | CN1[C@@H]2C[C@@H](OC(=O)[C@H](CO)c3ccccc3)C[C@H]1[C@@H]1O[C@@H]12 [scopolamine] | ineffective in reducing catalepsy | completely reversed |  | 
2 | c1ccc(-c2nnc(N[C@H]3C[C@@H]4CN(CC5CCOCC5)C[C@@H]4C3)c3sccc23)cc1 [compound 14, 4-phenyl-N-((3aR,5s,6aS)-2-((tetrahydro-2H-pyran-4-yl)methyl)octahydrocyclopenta[c]pyrrol-5-yl)thieno[2,3-d]pyridazin-7-amine] |  |  | 1.46 nM | 4%
3 | Fc1cc(F)c(F)c(-c2nnc(N[C@H]3C[C@@H]4CN(CC5CCOCC5)C[C@@H]4C3)c3ccsc23)c1 [compound 16, N-((3aR,5s,6aS)-2-((tetrahydro-2H-pyran-4-yl)methyl)octahydrocyclopenta[c]pyrrol-5-yl)-7-(2,3,5-trifluorophenyl)thieno[2,3-d]pyridazin-4-amine] |  |  | 1.71 nM | 4%
4 | Fc1ccccc1-c1nnc(N[C@H]2C[C@@H]3CN(CC4CCOCC4)C[C@@H]3C2)c2sccc12 [compound 15, 4-(2-fluorophenyl)-N-((3aR,5s,6aS)-2-((tetrahydro-2H-pyran-4-yl)methyl)octahydrocyclopenta[c]pyrrol-5-yl)thieno[2,3-d]pyridazin-7-amine] |  |  | 2.31 nM | 3%
5 | [2H]C([2H])(C1CCOCC1)N1C[C@H]2C[C@H](Nc3nnc(-c4cc(F)ccc4F)c4sccc34)C[C@H]2C1 [compound 18, 7-(2,5-difluorophenyl)-N-((3aR,5s,6aS)-2-((tetrahydro-2H-pyran-4-yl)methyl-d2)octahydrocyclopenta[c]pyrrol-5-yl)thieno[2,3-d]pyridazin-4-amine] |  |  | 3 nM | 3%
6 | Cc1c(-c2nnc(N[C@H]3C[C@@H]4CN(CC5CCOCC5)C[C@@H]4C3)c3ccsc23)ccc2nn(C)cc12 [compound 17, 7-(2,4-dimethyl-2H-indazol-5-yl)-N-((3aR,5s,6aS)-2-((tetrahydro-2H-pyran-4-yl)methyl)octahydrocyclopenta[c]pyrrol-5-yl)thieno[2,3-d]pyridazin-4-amine] |  |  | 0.65 nM | 3%
7 | Fc1ccccc1-c1nnc(N[C@H]2C[C@@H]3CN(CC4CCOCC4)C[C@@H]3C2)c2ccsc12 [compound 7, 7-(2-fluorophenyl)-N-((3aR,5s,6aS)-2-((tetrahydro-2H-pyran-4-yl)methyl)octahydrocyclopenta[c]pyrrol-5-yl)thieno[2,3-d]pyridazin-4-amine] |  |  | 7690 nM | 15%
8 | C[C@H]1CCCN(c2nnc(N[C@H]3C[C@@H]4CN(CC5CCOCC5)C[C@@H]4C3)c3ccsc23)C1 [compound 21, 7-((S)-3-methylpiperidin-1-yl)-N-((3aR,5s,6aS)-2-((tetrahydro-2H-pyran-4-yl)methyl)octahydrocyclopenta[c]pyrrol-5-yl)thieno[2,3-d]pyridazin-4-amine] |  |  | 15.1 nM | 4%
9 | [2H]C([2H])(C1CCOCC1)N1C[C@H]2C[C@H](Nc3nnc(-c4cc(F)ccc4F)c4ccccc34)C[C@H]2C1 [compound 27, 4-(2,5-difluorophenyl)-N-((3aR,5s,6aS)-2-((tetrahydro-2H-pyran-4-yl)methyl-d2)octahydrocyclopenta[c]pyrrol-5-yl)phthalazin-1-amine] |  |  | 12 nM | 3%
10 | Fc1ccc(F)c(-c2nnc(N[C@H]3C[C@@H]4CN(CC5CCOCC5)C[C@@H]4C3)c3c2CCCC3)c1 [compound 23, 4-(2,5-difluorophenyl)-N-((3aR,5s,6aS)-2-((tetrahydro-2H-pyran-4-yl)methyl)octahydrocyclopenta[c]pyrrol-5-yl)-5,6,7,8-tetrahydrophthalazin-1-amine] |  |  | 5.43 nM | 3%
